Experiment: wn = mass fraction of the nth substance listed
Conditions: Gas, Burnett expansion method

FCC(F)(F)F [1,1,1,2-tetrafluoroethane] + CCC
Conditions | mass density [kg/m3]
251.84 K, 167.7 kPa, w2 = 0.4 | 9.96073
251.85 K, 201.9 kPa, w2 = 0.4 | 13.2676
251.86 K, 140.8 kPa, w2 = 0.4 | 7.47724
251.88 K, 122.9 kPa, w2 = 0.4 | 5.6131
251.89 K, 177.7 kPa, w2 = 0.45 | 5.82156
251.9 K, 103.2 kPa, w2 = 0.45 | 3.28086
251.9 K, 135.5 kPa, w2 = 0.45 | 4.37034
251.9 K, 231.8 kPa, w2 = 0.45 | 7.75442
252.28 K, 125.8 kPa, w2 = 0.5 | 3.8957
252.28 K, 164.9 kPa, w2 = 0.5 | 5.1893
252.29 K, 95.7 kPa, w2 = 0.5 | 2.9246
252.29 K, 215.3 kPa, w2 = 0.5 | 6.9121
252.3 K, 277.7 kPa, w2 = 0.5 | 9.2069
254.94 K, 147.3 kPa, w2 = 0.65 | 4.0008
254.94 K, 193.1 kPa, w2 = 0.65 | 5.32
254.94 K, 251.7 kPa, w2 = 0.65 | 7.0741
254.95 K, 111.9 kPa, w2 = 0.65 | 3.0009
255.01 K, 161.7 kPa, w2 = 0.55 | 4.7449
255.01 K, 211.6 kPa, w2 = 0.55 | 6.3095
255.01 K, 275.1 kPa, w2 = 0.55 | 8.3897
255.02 K, 122.9 kPa, w2 = 0.55 | 3.5683
255.02 K, 242.1 kPa, w2 = 0.6 | 7.0088
255.03 K, 107.3 kPa, w2 = 0.6 | 2.9809
255.03 K, 141.3 kPa, w2 = 0.6 | 3.9638
255.03 K, 185.5 kPa, w2 = 0.6 | 5.2708
255.79 K, 278.4 kPa, w2 = 0.45 | 9.23624
255.8 K, 213.6 kPa, w2 = 0.45 | 6.93377
255.81 K, 124.4 kPa, w2 = 0.45 | 3.90764
255.81 K, 163.3 kPa, w2 = 0.45 | 5.20515
255.82 K, 214.2 kPa, w2 = 0.4 | 7.34761
255.82 K, 276.5 kPa, w2 = 0.4 | 9.7875
255.83 K, 125 kPa, w2 = 0.4 | 4.14099
255.83 K, 163.9 kPa, w2 = 0.4 | 5.51597
256.28 K, 141.3 kPa, w2 = 0.5 | 4.27286
256.28 K, 185.6 kPa, w2 = 0.5 | 5.69162
256.28 K, 242.9 kPa, w2 = 0.5 | 7.58146
256.28 K, 314.6 kPa, w2 = 0.5 | 10.099
256.29 K, 107.2 kPa, w2 = 0.5 | 3.20772
258.98 K, 181.5 kPa, w2 = 0.65 | 4.8943
258.99 K, 138.2 kPa, w2 = 0.65 | 3.6806
258.99 K, 237.5 kPa, w2 = 0.65 | 6.508
259 K, 308.1 kPa, w2 = 0.65 | 8.6533
259.04 K, 159.4 kPa, w2 = 0.6 | 4.3995
259.04 K, 209.2 kPa, w2 = 0.6 | 5.8501
259.04 K, 273.1 kPa, w2 = 0.6 | 7.7791
259.05 K, 121 kPa, w2 = 0.6 | 3.3086
259.15 K, 246.1 kPa, w2 = 0.55 | 7.2337
259.15 K, 319.6 kPa, w2 = 0.55 | 9.6189
259.16 K, 143 kPa, w2 = 0.55 | 4.0909
259.16 K, 188 kPa, w2 = 0.55 | 5.4398
260.14 K, 233.5 kPa, w2 = 0.45 | 7.48249
260.15 K, 178.4 kPa, w2 = 0.45 | 5.61717
260.16 K, 136 kPa, w2 = 0.45 | 4.21669
260.16 K, 216.7 kPa, w2 = 0.5 | 6.56707
260.16 K, 304 kPa, w2 = 0.45 | 9.96648
260.17 K, 104.4 kPa, w2 = 0.45 | 3.16556
260.18 K, 117.7 kPa, w2 = 0.4 | 3.78056
260.19 K, 155.8 kPa, w2 = 0.4 | 5.03578
260.19 K, 265.9 kPa, w2 = 0.4 | 8.93493
260.2 K, 125.4 kPa, w2 = 0.5 | 3.70054
260.2 K, 165.1 kPa, w2 = 0.5 | 4.92963
260.21 K, 95 kPa, w2 = 0.5 | 2.77802
260.25 K, 204 kPa, w2 = 0.4 | 6.70606
260.39 K, 282.8 kPa, w2 = 0.5 | 8.73987
263.01 K, 137.7 kPa, w2 = 0.65 | 3.5955
263.01 K, 237 kPa, w2 = 0.65 | 6.3575
263.01 K, 308.7 kPa, w2 = 0.65 | 8.4537
263.02 K, 181 kPa, w2 = 0.65 | 4.781
263.04 K, 222.9 kPa, w2 = 0.55 | 6.3877
263.05 K, 128.9 kPa, w2 = 0.55 | 3.6124
263.05 K, 219.6 kPa, w2 = 0.6 | 6.0704
263.05 K, 286.9 kPa, w2 = 0.6 | 8.072
263.05 K, 291.1 kPa, w2 = 0.55 | 8.4935
263.06 K, 167.2 kPa, w2 = 0.6 | 4.5651
263.06 K, 169.8 kPa, w2 = 0.55 | 4.8035
263.06 K, 376.6 kPa, w2 = 0.55 | 11.2936
263.07 K, 371.3 kPa, w2 = 0.6 | 10.733
264.02 K, 234.6 kPa, w2 = 0.45 | 7.35423
264.02 K, 305.6 kPa, w2 = 0.45 | 9.80334
264.03 K, 136.3 kPa, w2 = 0.45 | 4.14766
264.03 K, 179.2 kPa, w2 = 0.45 | 5.52482
264.03 K, 395.1 kPa, w2 = 0.45 | 13.0578
264.05 K, 220.5 kPa, w2 = 0.4 | 7.15058
264.05 K, 288.1 kPa, w2 = 0.4 | 9.52478
264.06 K, 127.7 kPa, w2 = 0.4 | 4.02995
264.06 K, 168.1 kPa, w2 = 0.4 | 5.36802
264.06 K, 373.8 kPa, w2 = 0.4 | 12.6873
264.29 K, 216 kPa, w2 = 0.5 | 6.42237
264.29 K, 282.6 kPa, w2 = 0.5 | 8.55501
264.29 K, 367.3 kPa, w2 = 0.5 | 11.3955
264.3 K, 124.9 kPa, w2 = 0.5 | 3.61957
264.3 K, 164.5 kPa, w2 = 0.5 | 4.82138
266.99 K, 289.8 kPa, w2 = 0.65 | 7.7396
267.01 K, 221.7 kPa, w2 = 0.65 | 5.82
267.01 K, 375.8 kPa, w2 = 0.65 | 10.2907
267.02 K, 128.5 kPa, w2 = 0.65 | 3.2915
267.02 K, 169 kPa, w2 = 0.65 | 4.3767
267.04 K, 261.1 kPa, w2 = 0.55 | 7.4247
267.04 K, 340.3 kPa, w2 = 0.55 | 9.8728
267.05 K, 199.2 kPa, w2 = 0.55 | 5.5837
267.05 K, 438.6 kPa, w2 = 0.55 | 13.1279
267.07 K, 138.6 kPa, w2 = 0.6 | 3.6841
267.07 K, 151.4 kPa, w2 = 0.55 | 4.1987
267.07 K, 182.7 kPa, w2 = 0.6 | 4.8989
267.07 K, 239.8 kPa, w2 = 0.6 | 6.5142
267.07 K, 313.2 kPa, w2 = 0.6 | 8.6621
267.08 K, 405.7 kPa, w2 = 0.6 | 11.5178
267.95 K, 114.5 kPa, w2 = 0.4 | 3.5398
267.95 K, 150.8 kPa, w2 = 0.4 | 4.71519
267.95 K, 198.3 kPa, w2 = 0.4 | 6.28082
267.96 K, 259.7 kPa, w2 = 0.4 | 8.36602
268 K, 338.5 kPa, w2 = 0.4 | 11.1424
268.07 K, 437.9 kPa, w2 = 0.4 | 14.8381
268.15 K, 234.6 kPa, w2 = 0.45 | 7.16341
268.15 K, 306.8 kPa, w2 = 0.45 | 9.54198
268.15 K, 398.6 kPa, w2 = 0.45 | 12.7103
268.16 K, 135.7 kPa, w2 = 0.45 | 4.03719
268.16 K, 178.7 kPa, w2 = 0.45 | 5.37765
268.22 K, 133.2 kPa, w2 = 0.5 | 3.80047
268.23 K, 175.4 kPa, w2 = 0.5 | 5.06234
268.24 K, 230.4 kPa, w2 = 0.5 | 6.74301
268.24 K, 301.4 kPa, w2 = 0.5 | 8.98179
268.25 K, 391.6 kPa, w2 = 0.5 | 11.9637
270.98 K, 225.5 kPa, w2 = 0.55 | 6.2618
270.99 K, 171.5 kPa, w2 = 0.55 | 4.709
270.99 K, 295.2 kPa, w2 = 0.55 | 8.3263
270.99 K, 384.1 kPa, w2 = 0.55 | 11.0715
271.01 K, 493 kPa, w2 = 0.55 | 14.7211
271.03 K, 140.5 kPa, w2 = 0.65 | 3.5483
271.03 K, 242.2 kPa, w2 = 0.65 | 6.274
271.03 K, 316.1 kPa, w2 = 0.65 | 8.3428
271.04 K, 184.7 kPa, w2 = 0.65 | 4.7181
271.04 K, 466.5 kPa, w2 = 0.6 | 13.2292
271.05 K, 409.9 kPa, w2 = 0.65 | 11.0926
271.08 K, 361.5 kPa, w2 = 0.6 | 9.9474
271.1 K, 160.8 kPa, w2 = 0.6 | 4.2305
271.1 K, 211.6 kPa, w2 = 0.6 | 5.6254
271.1 K, 277.5 kPa, w2 = 0.6 | 7.4803
271.58 K, 526.1 kPa, w2 = 0.5 | 16.4345
271.6 K, 411.1 kPa, w2 = 0.5 | 12.337
271.62 K, 241.2 kPa, w2 = 0.5 | 6.95248
271.62 K, 316.5 kPa, w2 = 0.5 | 9.26115
271.64 K, 182.9 kPa, w2 = 0.5 | 5.21904
271.65 K, 138.7 kPa, w2 = 0.5 | 3.918
272.12 K, 507.5 kPa, w2 = 0.45 | 16.4006
272.13 K, 175.9 kPa, w2 = 0.45 | 5.20923
272.13 K, 231.2 kPa, w2 = 0.45 | 6.93891
272.13 K, 289.6 kPa, w2 = 0.4 | 9.21252
272.13 K, 302.5 kPa, w2 = 0.45 | 9.24297
272.13 K, 393.6 kPa, w2 = 0.45 | 12.3121
272.14 K, 127.8 kPa, w2 = 0.4 | 3.89783
272.14 K, 168.4 kPa, w2 = 0.4 | 5.19207
272.14 K, 221.2 kPa, w2 = 0.4 | 6.91602
